Among the data in article PMC6017331, “Bacterial Production, Characterization and Protein Modeling of a Novel Monofuctional Isoform of FAD Synthase in Humans: An Emergency Protein?” (Molecules : A Journal of Synthetic Chemistry and Natural …, 2018) are Km, FAD/monomer ratio and stoichiometry N values, retold here.

Assay [1] has as its target T1, hFADS6 (6-His-hFADS6; human FAD synthase isoform 6) (Homo sapiens, UniProt Q8NFF5).
T1 construct: gene FLAD1; 320 residues (963 bp cDNA) from Met268 of FADS1, PAPS reductase domain plus N-terminal extension; E. coli Rosetta(DE3)pLysS; monomer
The assay can be described thus: fluorimetric FAD synthesis, Michaelis-Menten fit. The class given is biochemical. The conditions noted are these: 5 mM MgCl2, 50 mM Tris/HCl pH 7.5, 37 °C.

Assay [2] concerns the target T1, hFADS6 (6-His-hFADS6; human FAD synthase isoform 6). Kind of assay: absorbance spectrum and HPLC of acid-extracted flavin from purified protein. In kind it is binding. The conditions noted are these: co-purified from E. coli; tightly but not covalently bound.
Assay [3] shares this target. Kind of assay: fluorimetric FAD pyrophosphorolysis. The class given is biochemical. As to conditions: NaPPi, 5 mM MgCl2, 50 mM Tris/HCl pH 7.5, 37 °C; reverse reaction; detection limit of the instrument; read-out: KmFAD.
Assay [4] has as its target human FAD synthase isoform 2 (6-His-hFADS2) (human). Kind of assay: SEC-MALS; tandem HPLC-GPC/LS on a Superose 12 10/300 GL column, 0.5 mL/min, 40 mM Hepes/Na, 150 mM NaCl, pH 7.4; MALS masses taken from the peaks run with 1 mM DTT. (In general: SEC sorts molecules by how far they enter the pores of the column.)

Usually stoichiometry N stands for a count of units in the complex or per binding partner.

T1 sequence (Q8NFF5 268-587): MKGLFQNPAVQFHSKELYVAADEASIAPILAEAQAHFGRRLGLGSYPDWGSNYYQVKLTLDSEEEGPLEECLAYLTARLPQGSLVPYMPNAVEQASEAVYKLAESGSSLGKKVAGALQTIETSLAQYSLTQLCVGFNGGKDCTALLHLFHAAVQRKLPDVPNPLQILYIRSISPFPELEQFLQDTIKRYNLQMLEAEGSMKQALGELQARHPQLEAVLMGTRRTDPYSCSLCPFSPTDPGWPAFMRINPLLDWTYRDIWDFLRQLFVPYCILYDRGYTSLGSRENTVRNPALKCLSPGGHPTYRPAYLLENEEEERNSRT
Sequence of human FAD synthase isoform 2 (6-His-hFADS2) (enzyme) (Q8NFF5 98-587): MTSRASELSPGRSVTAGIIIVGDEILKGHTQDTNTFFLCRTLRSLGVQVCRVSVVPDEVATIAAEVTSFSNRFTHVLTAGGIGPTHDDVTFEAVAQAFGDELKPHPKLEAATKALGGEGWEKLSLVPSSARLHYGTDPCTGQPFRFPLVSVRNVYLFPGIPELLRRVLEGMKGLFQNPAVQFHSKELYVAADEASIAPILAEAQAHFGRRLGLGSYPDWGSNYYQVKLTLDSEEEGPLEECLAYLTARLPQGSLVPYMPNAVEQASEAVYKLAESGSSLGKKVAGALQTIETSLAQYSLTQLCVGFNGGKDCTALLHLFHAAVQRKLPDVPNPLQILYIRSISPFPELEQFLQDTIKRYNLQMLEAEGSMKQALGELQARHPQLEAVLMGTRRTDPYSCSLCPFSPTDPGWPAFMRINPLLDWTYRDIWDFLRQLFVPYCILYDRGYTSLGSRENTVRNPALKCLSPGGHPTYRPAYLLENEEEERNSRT

Take `Nc1ncnc2c1ncn2[C@@H]1O[C@H](COP(=O)(O)OP(=O)(O)OP(=O)(O)O)[C@@H](O)[C@H]1O` [ATP]: the Km in assay [1] (2 µM FMN, read-out: KmATP (apparent)) was 6.91 ± 0.51 µM.
For the compound `Cc1cc2nc3c(=O)[nH]c(=O)nc-3n(C[C@H](O)[C@H](O)[C@H](O)COP(=O)(O)OP(=O)(O)OC[C@H]3O[C@@H](n4cnc5c(N)ncnc54)[C@H](O)[C@@H]3O)c2cc1C` [FAD], the FAD/monomer ratio entry in assay [2] was “demonstrates that the bound cofactor is FAD”. For the same compound, in assay [3], the Km was < 0.1 µM.
With `Cc1cc2nc3c(=O)[nH]c(=O)nc-3n(C[C@H](O)[C@H](O)[C@H](O)COP(=O)(O)O)c2cc1C` [FMN], the Km in assay [1] (100 µM ATP, read-out: KmFMN (apparent)) stood at 0.13 ± 0.01 µM.
Compound “human FAD synthase isoform 2 (6-His-hFADS2) (enzyme)” came in with a stoichiometry N in assay [4] of 2.
